Source: US20040038855A1 (priority 1999, published 2004)
Ends that are not written are not given here.

Tests used:
rat MCH1 receptor = target: T1, rat MCH1 receptor (Rattus norvegicus, UniProt P97639); test: Binding affinity (Ki) at the rat MCH1 receptor; conditions: Examples 142-153; read-out: Ki (nM) rMCH1
T1 construct: expressed in transfected cells

[1] = system: micturition reflex, anesthetized female Sprague Dawley rats; test: Distension-induced rhythmic contraction (DIRC) model; assay type: in vivo, rat; design: key: A = Produced a significant increase in contraction interval relative to pre-drug interval; conditions: contraction interval, i.v. or i.p.
Experimental: The effects of compounds on the micturition reflex were assessed in the “distension-induced rhythmic contraction” (DIRC), as described in previous publications (e.g. Maggi et al, 1987; Morikawa et al, 1992), and Continuous Slow Transvesicular Infusion (CSTI) models in rats.
Female Sprague Dawley rats weighing approximately 300 g were anesthetized with subcutaneous urethane (1.2 g/kg). The trachea was cannulated with PE240 tubing to provide a clear airway throughout the experiment. A midline abdominal incision was made and the left and right ureters were isolated. The ureters were ligated distally (to prevent escape of fluids from the bladder) and cannulated proximally with PE10 tubing. The incision was closed using 4-0 silk sutures, leaving the PE10 lines routed to the exterior for the elimination of urine. The bladder was canulated via the transurethral route using PE50 tubing inserted 2.5 cm beyond the urethral opening. This cannula was secured to the tail using tape and connected to a pressure transducer. To prevent leakage from the bladder, the cannula was tied tightly to the exterior urethral opening using 4-0 silk.
To initiate the micturition reflex, the bladder was first emptied by applying pressure to the lower abdomen, and then filled with normal saline in […] (maximum 2 ml) until spontaneous bladder contractions occurred (typically 20-40 mmHg at a rate of one contraction every 2 to 3 minutes. Once a regular rhythm was established, vehicle (saline) or Test Compounds were administered i.v. or i.p. to explore their effects on bladder activity. The 5-HT1A antagonist WAY-100635 was given as a positive control. Data were expressed as contraction interval (in seconds) before drug application (basal), or after the application of vehicle or test article.

[2] = system: micturition reflex, conscious male Sprague Dawley rats; test: Continuous Slow Transvesicular Infusion (CSTI) rat model; assay type: in vivo; design: key to Effect of MCH1 antagonist in the CSTI model: B = Produced an increase in bladder capacity in rats relative to baseline capacity; conditions: bladder capacity, intragastric
Experimental: The effects of compounds on the micturition reflex were assessed in the “distension-induced rhythmic contraction” (DIRC), as described in previous publications (e.g. Maggi et al, 1987; Morikawa et al, 1992), and Continuous Slow Transvesicular Infusion (CSTI) models in rats. Male Sprague Dawley rats weighing approximately 300 g were used for the study. Rats were anaesthetized with pentobarbitone sodium (50 mg/kg, i.p). Through a median abdominal incision, bladder was exposed and a polyethylene cannula (PE 50) was introduced into the bladder through a small cut on the dome of the bladder and the cannula was secured with a purse string suture. The other end of the cannula was exteriorized subcutaneously at the dorsal neck area. Similarly, another cannula (PE 50) was introduced into the stomach through a paramedian abdominal incision with the free end exteriorized subcutaneously to the neck region. The surgical wounds were closed with silk 4-0 suture and the animal was allowed to recover with appropriate post surgical care. On the following day, the animal was placed in a rat restrainer. The open end of the bladder cannula was connected to a pressure transducer as well as infusion pump through a three-way stopcock. The bladder voiding cycles were initiated by continuous infusion of normal saline at the rate of 100 ul/min. The repetitive voiding contractions were recorded on a Power Lab on-line data acquisition software. After recording the basal voiding pattern for an hour, the test drug or vehicle was administered directly into stomach through the intragastric catheter and the voiding cycles were monitored for 5 hours. Micturition pressure and frequency were calculated before and after the treatment (at every 30 min interval) for each animal. Bladder capacity was calculated from the micturition frequency, based on the constant infusion of 100 ul/min. The effect of the test drug was expressed as a percentage of basal, pre-drug bladder capacity. WAY 100635 was used as positive control for comparison.

human MCH1 receptor = human MCH1 receptor (Homo sapiens, UniProt Q99705); test: Binding of [125I]Phe13,Tyr19-MCH on MCH1-transfected Cos-7 cell membranes; design: expressed in transfected cells; host or cells: COS-7; conditions: 0.1 nM radioligand
Experimental: For binding assays, pellets of transfected cells are suspended in ice-cold buffer (20 mM Tris.HCl, 5 mM EDTA, pH 7.4) and homogenized by sonication for 7 sec. The cell lysates are centrifuged at 200×g for 5 min at 4° C. The supernatants are then centrifuged at 40,000×g for 20 min at 4° C. The resulting pellets are washed once in the homogenization buffer and suspended in binding buffer (see methods for radioligand binding). Protein concentrations are determined by the method of Bradford (1976) using bovine serum albumin as the standard. Binding assays are usually performed immediately, however it is possible to prepare membranes in batch and store frozen in liquid nitrogen for future use.
MCH1 binding experiments with membranes (20-40 μg membrane protein) from transfected cells are performed with 0.1 nM [^125I]Phe^13-Tyr^19-MCH (Custom labeled by NEN) using incubation buffer consisting of 50 mM Tris pH 7.4, 10MM MgCl2, 2 μg/ml aprotonin, 0.5 mM PMSF and 50 μg/ml bacitracin. Binding is performed at 25° C. for 1 hr. Incubations are terminated by rapid vacuum filtration over GF/C glass fiber filters, presoaked in 5% PEI using 50 mM Tris pH 7.4 containing 0.01% triton X-100 as wash buffer.
Specific [^125I]Phe^13-Tyr^19-MCH binding was about 70% of total binding at a radioligand concentration of 0.1 nM (FIG. 10).

[3] = system: MCH binding sites of G4F-7 cells; conditions: cited from earlier work

Chain of human MCH1 receptor (Q99705 whole entry): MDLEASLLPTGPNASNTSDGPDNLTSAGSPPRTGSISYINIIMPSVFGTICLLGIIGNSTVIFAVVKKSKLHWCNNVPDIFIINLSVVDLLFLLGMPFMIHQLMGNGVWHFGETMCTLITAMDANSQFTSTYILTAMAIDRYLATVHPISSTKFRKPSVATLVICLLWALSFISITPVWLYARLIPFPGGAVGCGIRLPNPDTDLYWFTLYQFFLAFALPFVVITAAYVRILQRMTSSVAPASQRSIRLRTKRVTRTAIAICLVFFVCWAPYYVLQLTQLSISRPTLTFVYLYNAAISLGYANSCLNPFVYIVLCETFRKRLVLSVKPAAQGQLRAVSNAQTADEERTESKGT
T1 sequence (P97639 whole entry): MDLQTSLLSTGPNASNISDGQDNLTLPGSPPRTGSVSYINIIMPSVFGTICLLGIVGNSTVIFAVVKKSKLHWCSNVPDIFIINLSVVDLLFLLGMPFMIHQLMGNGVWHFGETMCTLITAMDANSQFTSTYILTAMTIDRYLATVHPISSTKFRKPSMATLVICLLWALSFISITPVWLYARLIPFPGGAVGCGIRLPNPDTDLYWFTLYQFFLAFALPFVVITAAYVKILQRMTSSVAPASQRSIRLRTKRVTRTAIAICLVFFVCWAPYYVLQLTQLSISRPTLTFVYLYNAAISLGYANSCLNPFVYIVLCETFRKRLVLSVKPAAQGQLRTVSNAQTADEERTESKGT

Row | Compound | Ki (rat MCH1 receptor) | Effect of MCH1 antagonist in the DIRC model [1] | Effect of MCH1 antagonist in the CSTI model [2] | also measured
1 | [^125I]Phe^13-Tyr^19-MCH: radioiodinated MCH analogue, custom labeled by NEN, radioligand of the MCH1 binding experiments | – | – | – | specific binding as share of total binding (human MCH1 receptor): about 70 % of total binding; specific binding (human MCH1 receptor; MCH1-transfected cells): about 80 fmol/mg membrane protein
2 | rat ANF: rat ANF, weakly inhibited binding of the radioiodinated MCH analogue (SLRRSSCFGGRIDRIGAQSGLGCNSFRY; ends and bridges not checked; cysteine pairing not given here; UniProt P01161 123-150, looked up) | – | – | – | Ki ([3]; inhibition of binding of the radioiodinated ligand): 116 nM
3 | α-MSH | – | – | – | inhibition of binding of the radioiodinated ligand [3]: not inhibited

Continued, in another order:

Row | Ki (rat MCH1 receptor) | Compound | Effect of MCH1 antagonist in the DIRC model [1] | Effect of MCH1 antagonist in the CSTI model [2] | also measured
4 | 7.1 nM | Cc1onc(-c2c(Cl)cccc2Cl)c1C(=O)NCCCCCN1CCC(c2cccc(NC(=O)C(C)C)c2)CC1 [Example 149] | A | B | –
5 | 3.8 nM | CC(=O)c1cccc(O[C@H](CCN2CCC(c3cccc(NC(=O)C(C)C)c3)CC2)c2ccccc2)c1 [Example 151] | A | B | –
